Earlier results on seven molecules are cited in US20200171007A1, “Methods of Treating Hepatorenal Syndrome and Hepatic Encephalopathy with Thromboxane-A2 Receptor Antagonists” (Cumberland Pharmaceuticals Inc., priority 2010, published 2020).

Molecules are shown by their SMILES. Where a SMILES comes first, the peptide text is derived from it. Bridges are numbered along the chain shown (N, C = ends). [ ]: non-standard residue; d: D form.

The subject of data set [1] is patients with cirrhosis, ascites, and hepatorenal syndrome. The following applies: case series.
In data set [2] the test system is patients with hepatorenal syndrome. The following applies: intravenous, twelve patients.
The test system of data set [3] is patients with cirrhosis. The following applies: patients with cirrhosis / hepatorenal syndrome.
Data set [4] has as its system patients with type 1 hepatorenal syndrome. The following applies: nonpressor doses, with albumin.
The test system of data set [5] is patients with hepatorenal syndrome. The following applies: five studies.
Data set [6] has the same test system. The following applies: ornipressin and albumin.
Data set [7] relates to patients with type 1 hepatorenal syndrome. The following applies: type 1 hepatorenal syndrome (octapressin); short-term use (ornipressin).
For data set [8], the system named is patients with hepatorenal syndrome.
Data set [9] has as its system patients with type 1 hepatorenal syndrome.
The mark [10] stands for this setting: includes 2 patients who received liver transplantation.

On to `CC(C)C[C@@H]1NC(=O)[C@@H](C(C)C)NC(=O)[C@@H]2CCCN2C(=O)[C@@H](CC(=O)O)NC(=O)[C@@H](Cc2c[nH]c3ccccc23)NC1=O` [BQ123] (cyclo(L[dW][dD]P[dV])), for which, in data set [1], the “patients with improvement in the glomerular filtration rate” value is 3 patients.
In the case of `CC(=O)N[C@@H](CS)C(=O)O` [NAC, N-acetylcysteine], in data set [2], the adverse effects result is “without any adverse effects”. In [2] (setting [10]), the “survival rate at 1 month” value is reported as 67% and the “survival rate at 3 months” value is given as 58%.
As for `CNCC(=O)N[C@@H](CCCN=C(N)N)C(=O)N[C@H](C(=O)N[C@@H](Cc1ccc(O)cc1)C(=O)N[C@H](C(=O)N[C@@H](Cc1cnc[nH]1)C(=O)N1CCC[C@H]1C(=O)N[C@@H](C)C(=O)O)C(C)C)C(C)C` [Saralasin], the “effect on blood pressure and renal function” value in data set [3] is “worsening hypotension and deterioration in renal function”.
Regarding `NCCc1ccc(O)c(O)c1` [dopamine], the “improvement in renal function” value in [4] is “none of the patients treated with dopamine showed any improvement in renal function”. The “changes in renal plasma flow, glomerular filtration rate, or urine output” value in data set [5] is on record as “none have reported significant changes”.
Regarding `NCCC[C@H](NC(=O)[C@@H]1CCCN1C(=O)[C@@H]1CSSC[C@H](N)C(=O)N[C@@H](Cc2ccc(O)cc2)C(=O)N[C@@H](Cc2ccccc2)C(=O)N[C@@H](CCC(N)=O)C(=O)N[C@@H](CC(N)=O)C(=O)N1)C(=O)NCC(N)=O` [ornipressin], the “patients in whom treatment had to be discontinued because of complications (ischemic colitis, tongue ischemia, glossitis)” value in data set [6] (8 patients, after fewer than 9 days) is 4 patients. Also, in data set [6] (remaining 4 patients treated for 15 days), the “improvement in renal plasma flow and glomerular filtration rate” value is reported as “significant”. Further, the “Renal plasma flow and glomerular filtration rate” value in data set [7] is “significant increase”.
In the case of `Cc1ccc(N(CC2=NCCN2)c2cccc(O)c2)cc1` [phentolamine], the “effect on blood pressure and renal function” value in data set [3] is listed as “Poor results”.
Turning to `NCCCC[C@H](NC(=O)[C@@H]1CCCN1C(=O)[C@@H]1CSSC[C@H](NC(=O)CNC(=O)CNC(=O)CN)C(=O)N[C@@H](Cc2ccc(O)cc2)C(=O)N[C@@H](Cc2ccccc2)C(=O)N[C@@H](CCC(N)=O)C(=O)N[C@@H](CC(N)=O)C(=O)N1)C(=O)NCC(N)=O` [terlipressin] (H-GGGCYFQNCPKG-NH2; disulfide 4-9), the adverse ischemic effects result in data set [8] (human, in vivo) is “No adverse ischemic effects were reported”. The “Reversal of hepatorenal syndrome” value in data set [8] (terlipressin and albumin for 5-15 days, 9 patients treated) is listed as 7 of 9. Moreover, in data set [9] (in conjunction with albumin), the “recurrent hepatorenal syndrome after treatment discontinuation” value is on record as under 15%. Further, the “improvement in glomerular filtration rate and reduction in serum creatinine levels to below 1.5 mg/dL, share of patients” value in [9] (in conjunction with albumin, type 1 hepatorenal syndrome) is on record as 60-75%. In addition, the Ischemic complications in [9] (in vivo) is reported as under 5%.
